# The source made the active and inactive calls.
# Test system: not listed separately
# Test: Luminescence Cell-Based Dose Response HTS to Identify Inhibitors of 5'UTR Stem-Loop Driven Prion Protein mRNA Translation in H4 Neuroglioblastoma Cells. [Related pubchem assays: 1827 (Project Summary), 1813 (Primary HTS)]
# Format: functional
# Settings: not given
row,SMILES,EC50
1,CCn1cc(C(=O)N2CCN(c3ccc([N+](=O)[O-])cc3)CC2)c(=O)c2ccc(C)nc21,> 120 µM (not active)

# Biological target: T1, Polyadenylate-binding protein 1 (Homo sapiens, UniProt P11940)
# Test: MLLE domain peptide-binding blockers, IC50 – biochemical, fluorescence polarization, FITC-PAM2 peptide, dose response (AID 602259)
# Format: functional
# Settings: read-out: IC50_Mean
# T1 sequence (P11940 whole entry, the tested form may be a part): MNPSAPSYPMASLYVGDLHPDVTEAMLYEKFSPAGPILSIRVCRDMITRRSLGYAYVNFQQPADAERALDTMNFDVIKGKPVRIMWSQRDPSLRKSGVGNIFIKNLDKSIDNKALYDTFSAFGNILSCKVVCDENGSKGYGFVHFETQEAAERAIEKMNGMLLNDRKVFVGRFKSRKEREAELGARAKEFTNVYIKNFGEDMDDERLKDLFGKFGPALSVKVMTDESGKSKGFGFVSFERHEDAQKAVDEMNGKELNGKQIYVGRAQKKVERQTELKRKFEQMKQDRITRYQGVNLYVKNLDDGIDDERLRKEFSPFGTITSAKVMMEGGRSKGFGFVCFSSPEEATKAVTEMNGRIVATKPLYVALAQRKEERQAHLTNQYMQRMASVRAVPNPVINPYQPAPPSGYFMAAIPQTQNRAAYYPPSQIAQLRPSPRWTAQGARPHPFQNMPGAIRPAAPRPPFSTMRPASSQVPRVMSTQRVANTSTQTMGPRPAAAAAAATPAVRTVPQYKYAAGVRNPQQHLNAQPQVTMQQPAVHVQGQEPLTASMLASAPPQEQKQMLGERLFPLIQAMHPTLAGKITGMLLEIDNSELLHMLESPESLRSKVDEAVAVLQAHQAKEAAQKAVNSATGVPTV
row,SMILES,IC50
1,O=C(NC(=S)NNS(=O)(=O)c1ccccc1)c1ccccc1[N+](=O)[O-],> 66 µM (inactive)
2,COC(=O)c1ccccc1NC(=S)NC(=O)c1ccc2c(c1)OCO2,> 66 µM (inactive)
3,CC1CCN(c2ccccc2NC(=S)NC(=O)c2ccco2)CC1,> 66 µM (inactive)
4,COC(=O)c1sc(=S)n(-c2cc(F)ccc2F)c1N,> 66 µM (inactive)
5,CCCCCc1ccc(C(=O)CCCC)c(S)n1,> 66 µM (inactive)
6,O=C1CCCC(=O)C1=NNc1ccc2ncsc2c1,> 66 µM (inactive)
7,CC(C)Oc1ccc(C(=O)NC2(C(F)(F)F)N=C3SCCN3C2=O)cc1 (centres undefined),> 66 µM (inactive)

# Test system: Streptococcus sp. 'group A'
# Test: Streptococcus pyogenes SK(-)GAS viability under kanamycin – luminescence, BacTiterGlo, confirmation, counter-screen for streptokinase expression inhibitor project, dose response (AID 1900)
# Format: functional, organism-based
# Settings: not given
row,SMILES,EC50
1,O=C(Nc1nnc(C2CC2)s1)c1cc(-c2ccccc2)nn1-c1ccccc1,10.1 µM (active)

# Biological target: T2, Corticotropin-releasing factor receptor 2/Corticotropin-releasing factor-binding protein (Homo sapiens, UniProt P24387+Q13324)
# T2 sequence (Q13324 whole entry): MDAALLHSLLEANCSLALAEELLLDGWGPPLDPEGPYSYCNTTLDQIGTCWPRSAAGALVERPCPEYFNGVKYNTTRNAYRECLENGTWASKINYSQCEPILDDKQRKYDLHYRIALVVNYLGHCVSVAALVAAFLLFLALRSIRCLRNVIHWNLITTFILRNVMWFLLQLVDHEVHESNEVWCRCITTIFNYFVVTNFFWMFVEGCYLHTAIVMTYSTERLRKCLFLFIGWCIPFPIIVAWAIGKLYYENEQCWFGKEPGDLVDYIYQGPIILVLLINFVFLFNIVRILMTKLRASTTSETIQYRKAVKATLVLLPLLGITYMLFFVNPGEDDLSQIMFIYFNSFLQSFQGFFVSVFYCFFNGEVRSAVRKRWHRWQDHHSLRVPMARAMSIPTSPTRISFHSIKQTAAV
# T2 sequence (P24387 whole entry): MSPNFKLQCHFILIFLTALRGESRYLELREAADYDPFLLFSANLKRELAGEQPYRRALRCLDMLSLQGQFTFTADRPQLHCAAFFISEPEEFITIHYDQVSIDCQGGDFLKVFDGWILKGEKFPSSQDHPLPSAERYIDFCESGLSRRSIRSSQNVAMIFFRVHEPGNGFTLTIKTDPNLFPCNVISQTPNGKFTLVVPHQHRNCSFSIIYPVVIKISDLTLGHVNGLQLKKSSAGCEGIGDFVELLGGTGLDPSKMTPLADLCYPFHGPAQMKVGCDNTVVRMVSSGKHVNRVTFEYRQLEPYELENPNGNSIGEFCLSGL
# Test: activators of CRF receptor 2 with binding protein – uHTS hits, confirmation (AID 602473)
# Format: functional
# Settings: read-out: EC50_Mean
row,SMILES,EC50
1,O=C1CC(c2ccccc2)CN1S(=O)(=O)c1ccccc1 (centres undefined),> 53 µM (inactive)
2,N#CCc1ccc(NS(=O)(=O)c2cccs2)cc1,> 53 µM (inactive)
3,Cc1ccc(CCNC(=O)C2CCCN(S(=O)(=O)N3CC(C)CC(C)C3)C2)cc1 (centres undefined),> 53 µM (inactive)
4,CC1CCCC(C)N1C(=O)COC(=O)COc1ccc(C#N)cc1 (centres undefined),> 53 µM (inactive)

# Biological target: T3, Streptokinase A (Streptococcus pyogenes serotype M1, UniProt P10520)
# T3 sequence (P10520 whole entry): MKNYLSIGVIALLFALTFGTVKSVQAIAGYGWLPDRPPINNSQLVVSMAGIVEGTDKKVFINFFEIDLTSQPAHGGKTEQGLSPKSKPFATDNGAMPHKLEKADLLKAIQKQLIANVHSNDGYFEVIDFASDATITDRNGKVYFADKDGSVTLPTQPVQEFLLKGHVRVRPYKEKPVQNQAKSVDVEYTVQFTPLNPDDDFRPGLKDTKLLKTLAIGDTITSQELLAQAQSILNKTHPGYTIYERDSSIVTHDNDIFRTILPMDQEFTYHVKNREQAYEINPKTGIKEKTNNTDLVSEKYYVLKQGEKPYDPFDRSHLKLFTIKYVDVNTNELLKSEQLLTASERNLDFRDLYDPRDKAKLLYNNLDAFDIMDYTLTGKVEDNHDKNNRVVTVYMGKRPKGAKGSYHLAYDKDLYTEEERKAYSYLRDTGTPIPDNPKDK
# Test: viability-normalized secreted streptokinase activity reduction – plasminogen activation absorbance, OD405, dose response (AID 1914);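 note: secreted streptokinase activity via plasminogen activation per viability signal from cell pellet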
# Format: functional, Streptococcus pyogenes M1 GAS
# Settings: not given
row,SMILES,EC50
1,O=C(Nc1nnc(C2CC2)s1)c1cc(-c2ccccc2)nn1-c1ccccc1,8.32 µM (active)

# Test system: not listed separately
# Test: P. falciparum Dd2 growth inhibitors, dose response, SYBR Green, cherry-picked samples (AID 1159567)
# Format: functional, cell-based
# Settings: not given
row,SMILES,AC50
1,C[C@@H]1CN([C@H](C)CO)C(=O)c2cccc(NC(=O)Nc3cccc4ccccc34)c2O[C@H]1CN(C)C(=O)NC1CCCCC1,4.98 µM (active)
2,C[C@@H]1CN([C@@H](C)CO)C(=O)Cc2cc(NC(=O)NC3CCCCC3)ccc2O[C@H]1CN(C)C(=O)Nc1cccc2ccccc12,5.11 µM (active)
3,CN(C)c1ccc2c(c1)[C@@H]1C[C@@H](CC(=O)NCc3cc(F)ccc3F)O[C@@H](CO)[C@@H]1O2,13.3 µM (active)

# Test system: not listed separately
# Test: Trypanosoma cruzi growth suppression in host cells – NIH3T3 host cells, beta-gal luminescence, confirmation (AID 2044);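 note: intracellular parasites grown in NIH/3T3 mouse fibroblasts as host cells; luminescent beta-galactosidase reporter signal from transgenic T. cruzi replicating inside host cells; inhibitors lower the luminescence signal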
# Format: functional, cell-based
# Settings: not given
row,SMILES,EC50
1,Cc1ccc(-n2cnn(-c3ccc([N+](=O)[O-])cc3[N+](=O)[O-])c2=O)cc1,1.54 µM (active)

# Test system: H9c2;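 note: confirmatory concentration-response retest of ultra-high-throughput screening hits for modulation of myocardial damage; cell death induced by hydrogen peroxide oxidative stress; compound pretreatment for 60 min then peroxide exposure for 2 h; potency is for protecting the cells against peroxide damage rather than for killing them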
# Test: cells
# Format: functional, cell-based
# Settings: Rattus norvegicus, H9c2, Myocardium
row,SMILES,IC50
1,CCCN(CC(=O)Nc1ccc(F)c(F)c1F)C(=O)CCc1nc(O)c2ccccc2n1,9.51 µM (active)
2,COc1ccc(NC(=O)c2cc3c(=O)n(C)c4ccccc4c3n2C)cc1OC,> 79 µM (inactive)
3,O=C(CSc1nnc(-c2cccnc2)n1Cc1ccco1)c1ccccc1,32.4 µM (inactive)
4,O=C(Nc1nnc(C2CC2)s1)c1cc(-c2ccccc2)nn1-c1ccccc1,12.3 µM (active)

# Test system: not listed separately
# Test: luciferase reporter signal suppression in cells – H4 neuroglioma cells, luminescence, dose response (AID 1990)
# Format: functional, cell-based
# Settings: not given
row,SMILES,EC50
1,CCn1cc(C(=O)N2CCN(c3ccc([N+](=O)[O-])cc3)CC2)c(=O)c2ccc(C)nc21,21.6 µM (active)

# Test system: not listed separately
# Test: viability of uninfected HEp-2 cells – cell-based, HTS, cytotoxicity control for RSV inhibitor project, dose response (AID 2410)
# Format: functional
# Settings: human respiratory syncytial virus
row,SMILES,CC50
1,O=C(Nc1nnc(C2CC2)s1)c1cc(-c2ccccc2)nn1-c1ccccc1,13.1 µM (active)

# Test system: Streptococcus
# Test: GAS UMAA2166 growth inhibition – luminescence, BacTiterGlo, counter-screen for streptokinase expression inhibitor project, dose response (AID 1915);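 note: potency for reduction of bacterial viability or growth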
# Format: functional, organism-based
# Settings: not given
row,SMILES,EC50
1,O=C(Nc1nnc(C2CC2)s1)c1cc(-c2ccccc2)nn1-c1ccccc1,20.8 µM (active)

# Biological target: T1, Polyadenylate-binding protein 1
# Test: MLLE binding blockers, Cy5 peptide tracer – biochemical, fluorescence polarization, Cy5-PAM2 peptide, secondary, miRNA deadenylation inhibitor project, dose response (AID 602260)
# Format: functional
# Settings: read-out: IC50_Mean
row,SMILES,IC50
1,O=C(NC(=S)NNS(=O)(=O)c1ccccc1)c1ccccc1[N+](=O)[O-],> 66 µM (inactive)
2,COC(=O)c1ccccc1NC(=S)NC(=O)c1ccc2c(c1)OCO2,> 66 µM (inactive)
3,CC1CCN(c2ccccc2NC(=S)NC(=O)c2ccco2)CC1,> 66 µM (inactive)
4,COC(=O)c1sc(=S)n(-c2cc(F)ccc2F)c1N,> 66 µM (inactive)
5,CCCCCc1ccc(C(=O)CCCC)c(S)n1,> 66 µM (inactive)
6,O=C1CCCC(=O)C1=NNc1ccc2ncsc2c1,> 66 µM (inactive)
7,CC(C)Oc1ccc(C(=O)NC2(C(F)(F)F)N=C3SCCN3C2=O)cc1 (centres undefined),> 66 µM (inactive)

# Test system: not listed separately
# Test: NIH3T3 cell viability loss – ATP luminescence, mouse fibroblasts, counter-screen, dose response (AID 2010);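 note: cells exposed to compound for about 90 hours before reading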
# Format: functional, cell-based
# Settings: not given
row,SMILES,EC50
1,Cc1ccc(-n2cnn(-c3ccc([N+](=O)[O-])cc3[N+](=O)[O-])c2=O)cc1,> 60 µM (not active)

# Biological target: Nonstructural protein 1 (Influenza A virus, UniProt Q194T2)
# Test: not given
# Format: functional, Influenza A virus (A/California/07/2009(H1N1))
# Settings: not given
# Nonstructural protein 1, sequence (Q194T2 whole entry): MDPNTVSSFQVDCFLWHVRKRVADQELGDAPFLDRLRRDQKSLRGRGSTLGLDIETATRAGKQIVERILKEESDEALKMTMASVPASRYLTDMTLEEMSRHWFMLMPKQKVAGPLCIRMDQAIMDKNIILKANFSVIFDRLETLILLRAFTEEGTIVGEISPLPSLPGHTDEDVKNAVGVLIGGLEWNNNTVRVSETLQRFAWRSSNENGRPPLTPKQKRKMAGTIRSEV
row,SMILES,IC50
1,Cc1ccc(-n2cnn(-c3ccc([N+](=O)[O-])cc3[N+](=O)[O-])c2=O)cc1,> 100 µM (active)

# Biological target: T2, Corticotropin-releasing factor receptor 2/Corticotropin-releasing factor-binding protein
# Test: Dose Response confirmation of uHTS hits for small molecule antagonists of the CRF-binding protein and CRF-R2 receptor complex.
# Format: functional
# Settings: read-out: IC50_Mean
row,SMILES,IC50
1,O=C1CC(c2ccccc2)CN1S(=O)(=O)c1ccccc1 (centres undefined),> 47.1 µM (inactive)
2,N#CCc1ccc(NS(=O)(=O)c2cccs2)cc1,> 47.1 µM (inactive)
3,Cc1ccc(CCNC(=O)C2CCCN(S(=O)(=O)N3CC(C)CC(C)C3)C2)cc1 (centres undefined),> 47.1 µM (inactive)
4,CC1CCCC(C)N1C(=O)COC(=O)COc1ccc(C#N)cc1 (centres undefined),> 47.1 µM (inactive)

# Biological target: T4, Leucine aminopeptidase (Plasmodium falciparum 3D7, UniProt Q8IL11)
# T4 sequence (Q8IL11 whole entry): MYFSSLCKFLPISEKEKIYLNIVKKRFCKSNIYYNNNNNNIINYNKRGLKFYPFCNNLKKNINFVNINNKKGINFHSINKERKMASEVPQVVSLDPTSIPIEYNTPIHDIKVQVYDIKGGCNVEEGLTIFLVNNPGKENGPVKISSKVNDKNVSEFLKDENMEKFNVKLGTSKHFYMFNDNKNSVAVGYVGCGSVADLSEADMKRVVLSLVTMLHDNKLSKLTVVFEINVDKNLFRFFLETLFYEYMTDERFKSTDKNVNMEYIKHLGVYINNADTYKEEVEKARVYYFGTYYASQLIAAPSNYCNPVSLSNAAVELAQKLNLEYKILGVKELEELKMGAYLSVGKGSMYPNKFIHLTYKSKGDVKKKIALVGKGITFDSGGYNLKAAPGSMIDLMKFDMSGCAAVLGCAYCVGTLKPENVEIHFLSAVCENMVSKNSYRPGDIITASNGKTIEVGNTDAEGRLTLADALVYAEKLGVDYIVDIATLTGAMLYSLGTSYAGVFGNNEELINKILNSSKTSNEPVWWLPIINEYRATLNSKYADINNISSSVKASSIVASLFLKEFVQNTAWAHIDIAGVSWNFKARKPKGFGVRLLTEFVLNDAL
# Test: P. falciparum M17LAP inhibitors, primary screen, biochemical, fluorogenic H-Leu-NHMec substrate, 1536-well (AID 1619)
# Format: functional
# Settings: not given
row,SMILES,IC50
1,O=C(NC(=S)NNS(=O)(=O)c1ccccc1)c1ccccc1[N+](=O)[O-],29.9 µM (active)
